One test deals with T1, KCNQ2/3 (KCNQ3 subunit) (Homo sapiens, UniProt O43525+O43526).
T1 construct: human KCNQ2/3 heteromeric channel expressed in Xenopus oocytes; with KCNQ2
In words: two-electrode voltage clamp in Xenopus oocytes, dose response at -70 mV; WL/WL and RA/RA mutants insensitive. The format is cell-based. A general note: In two-electrode clamp one electrode senses voltage and the other passes current.

The next test has as its target T2, KCNQ1 (Homo sapiens, UniProt P51787).
T2 construct: homomeric human KCNQ1 expressed in Xenopus oocytes
T2 sequence (P51787 1-676): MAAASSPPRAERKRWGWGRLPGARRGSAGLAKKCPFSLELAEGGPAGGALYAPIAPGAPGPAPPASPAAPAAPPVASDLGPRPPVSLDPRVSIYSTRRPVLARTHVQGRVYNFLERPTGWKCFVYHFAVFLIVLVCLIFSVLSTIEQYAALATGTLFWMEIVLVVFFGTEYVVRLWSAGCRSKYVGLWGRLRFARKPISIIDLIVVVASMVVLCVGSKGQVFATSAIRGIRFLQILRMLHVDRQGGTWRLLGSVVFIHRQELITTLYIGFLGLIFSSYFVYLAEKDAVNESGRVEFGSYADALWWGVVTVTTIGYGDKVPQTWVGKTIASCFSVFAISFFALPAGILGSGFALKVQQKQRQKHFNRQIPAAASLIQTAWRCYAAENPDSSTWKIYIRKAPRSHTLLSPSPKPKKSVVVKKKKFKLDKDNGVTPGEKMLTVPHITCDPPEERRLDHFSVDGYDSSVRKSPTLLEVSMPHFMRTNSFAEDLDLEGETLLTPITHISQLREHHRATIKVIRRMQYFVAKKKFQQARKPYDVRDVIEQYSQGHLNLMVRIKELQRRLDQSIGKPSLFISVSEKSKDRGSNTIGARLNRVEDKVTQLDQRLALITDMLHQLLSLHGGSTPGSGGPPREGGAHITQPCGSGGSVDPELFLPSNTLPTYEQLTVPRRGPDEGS
In words: two-electrode voltage clamp in Xenopus oocytes, […] quercetin. The format is cell-based.

T1 sequence (O43525 whole entry): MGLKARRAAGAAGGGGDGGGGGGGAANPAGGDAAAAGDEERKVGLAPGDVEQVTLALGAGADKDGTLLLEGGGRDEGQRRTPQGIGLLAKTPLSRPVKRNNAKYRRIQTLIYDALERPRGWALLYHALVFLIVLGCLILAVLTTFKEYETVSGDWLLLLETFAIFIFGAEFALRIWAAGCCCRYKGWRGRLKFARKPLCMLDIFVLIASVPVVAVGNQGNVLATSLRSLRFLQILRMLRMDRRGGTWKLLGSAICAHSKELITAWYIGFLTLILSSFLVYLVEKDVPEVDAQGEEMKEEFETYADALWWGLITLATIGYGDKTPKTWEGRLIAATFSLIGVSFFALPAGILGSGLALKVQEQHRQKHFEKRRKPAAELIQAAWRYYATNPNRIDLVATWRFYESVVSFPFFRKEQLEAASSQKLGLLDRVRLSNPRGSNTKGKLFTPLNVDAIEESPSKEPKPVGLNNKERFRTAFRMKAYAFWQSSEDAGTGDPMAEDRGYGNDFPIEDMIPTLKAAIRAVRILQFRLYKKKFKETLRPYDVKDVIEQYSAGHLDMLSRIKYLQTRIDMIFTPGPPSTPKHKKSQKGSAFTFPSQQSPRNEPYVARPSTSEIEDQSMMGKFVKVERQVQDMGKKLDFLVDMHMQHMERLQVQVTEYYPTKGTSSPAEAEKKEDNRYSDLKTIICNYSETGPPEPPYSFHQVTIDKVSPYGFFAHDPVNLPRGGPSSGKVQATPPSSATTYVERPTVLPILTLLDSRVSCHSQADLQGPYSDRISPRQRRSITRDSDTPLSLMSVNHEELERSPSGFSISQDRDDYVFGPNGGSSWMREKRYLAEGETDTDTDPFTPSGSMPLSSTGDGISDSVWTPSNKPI
T1 sequence (O43526 whole entry): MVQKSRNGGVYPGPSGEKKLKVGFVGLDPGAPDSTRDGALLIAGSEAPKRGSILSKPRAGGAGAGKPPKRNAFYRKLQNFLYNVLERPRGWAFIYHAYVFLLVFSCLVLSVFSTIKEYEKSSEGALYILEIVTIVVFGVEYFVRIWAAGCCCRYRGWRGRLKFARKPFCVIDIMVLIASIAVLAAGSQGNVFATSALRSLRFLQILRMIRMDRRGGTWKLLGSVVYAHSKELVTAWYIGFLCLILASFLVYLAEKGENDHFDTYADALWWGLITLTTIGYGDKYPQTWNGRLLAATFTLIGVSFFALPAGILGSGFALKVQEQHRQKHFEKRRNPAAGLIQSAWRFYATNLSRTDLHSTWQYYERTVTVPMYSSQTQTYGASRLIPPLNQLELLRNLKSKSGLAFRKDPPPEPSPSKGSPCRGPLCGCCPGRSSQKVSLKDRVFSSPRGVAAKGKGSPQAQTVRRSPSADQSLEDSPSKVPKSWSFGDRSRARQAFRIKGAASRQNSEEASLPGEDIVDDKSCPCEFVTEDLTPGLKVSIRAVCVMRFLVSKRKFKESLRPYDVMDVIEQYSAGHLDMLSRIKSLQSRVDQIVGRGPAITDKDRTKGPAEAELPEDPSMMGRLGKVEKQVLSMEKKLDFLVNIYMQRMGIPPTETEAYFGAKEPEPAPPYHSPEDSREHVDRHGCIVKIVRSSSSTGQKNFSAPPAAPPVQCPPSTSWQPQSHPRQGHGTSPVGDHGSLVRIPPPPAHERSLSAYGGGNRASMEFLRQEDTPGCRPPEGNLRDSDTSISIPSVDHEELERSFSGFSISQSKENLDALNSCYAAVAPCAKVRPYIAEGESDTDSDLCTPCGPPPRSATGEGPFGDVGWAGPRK

On to `O=C(O)c1cc(O)c(O)c(O)c1` [gallic acid], for which, on KCNQ2/3 (KCNQ3 subunit), the EC50 (commonly the concentration that produces a half-maximal response) stood at 560 ± 3 nM.
For the compound `O=c1c(O)c(-c2ccc(O)c(O)c2)oc2cc(O)cc(O)c12` [quercetin], the “two-electrode voltage clamp in Xenopus oocytes, 100 uM quercetin” value at KCNQ1 was “quercetin enhances both activation and inactivation of homomeric KCNQ1 channels, inducing visible voltage-dependent decay at depolarized potentials”.

The values are drawn from article PMC8632246, “KCNQ and KCNE Isoform-Dependent Pharmacology Rationalizes Native American Dual Use of Specific Plants as Both Analgesics and Gastrointestinal Therapeutics” (Frontiers in Physiology, 2021).
